{"source": "patent US20030119903A1", "about": "“Use of trimebutine for treating pain” (priority 1999, published 2003)", "key": {"[1]": {"system": "voltage-dependent Kv1.1 and Kv1.2 channels", "assay": "two-electrode voltage clamp, potassium currents in Xenopus oocytes", "conditions": "10 μM, Kv1.1 and Kv1.2 in Xenopus oocytes", "description": "(B) Potassium currents expressed in Xenopus oocytes. Superimposed current traces induced by 400 ms depolarizations at −40 to +20 mV (in 10 mV step from −80 mV).\nTwo voltage-dependent K^+ channels are considered: the shaker-related Kv1.1 and Kv1.2 channels.\nThe rat voltage-dependent rKv1.1 and rKv1.2 channels are expressed in Xenopus oocytes. […] The transcriptions are done using the Ambion Megascript (Ambion, USA) and the cRNAs are stored in water at 1 mg/ml. cRNAs injection in Xenopus oocytes is done at 2-4 ng/ml. Defolliculated oocytes are kept in ND96 medium supplemented with 0.1 U/ml gentamicin. The currents are recorded 1-6 days after injection.\nA two-electrode voltage clamp amplifier (Geneclamp 500, Axon Instruments) is used to record K^+ currents from Xenopus oocytes. The KCl (3M)-filled electrodes had tip resistance<1 MΩ. The oocytes are continuously superfused with a Ca^2+-free ND96 medium in order to abolish the large Ca^2+-activated Cl^− current present in these cells."}, "[2]": {"system": "μ-, δ- and κ- opioid receptors", "conditions": "rat brain, guinea-pig and canine intestinal receptors; no subtype selectivity; cited from earlier work"}, "[3]": {"system": "sodium currents in DRG neurons", "assay": "whole cell patch clamp, sodium currents in DRG neurons", "assay_type": "cell-based, rat"}, "[4]": {"conditions": "volunteers, tablets of 900 mg trimebutine, oral"}, "[5]": {"system": "veratridine-induced glutamate release", "assay": "veratridine-induced [3H]-glutamate release from rat spinal cord slices", "conditions": "for IC50: read-out: IC50, inhibition of veratridine-induced glutamate release"}, "[6]": {"system": "formalin induced pain", "assay": "formalin-induced pain", "conditions": "for ED50: Rattus norvegicus, sc, read-out: ED50, formalin induced pain (licking time)"}, "[7]": {"system": "sodium currents in GH3 cells", "assay": "sodium currents in GH3 cells", "assay_type": "cell-based, rat", "conditions": "read-out: IC50, sodium current block (summary statement)"}, "[8]": {"system": "PGE2-induced hyperalgesia", "assay": "PGE2-induced hyperalgesia (Randall and Selitto's test)", "description": "Test is carried out with Sprague-Dawley male rats (100-120 grams) on arrival. They are housed 5 per cage and acclimated to the conditions of the animal room for 5 days under a 12/12 day/night cycle and a constant room temperature of 22° C. Food and water are provided ad libidum.\nA solution of PGE2 (1 mg/ml) is prepared as a stock solution in a 10% (v/v) alcohol in apyrogen sterile saline and stored at 4° C. for 4 days.\nA solution of PGE2 (1 μg/ml) is freshly prepared twice daily in sterile saline and 100 μl is injected subplantar into the left paw of rat, twice daily for 4 days. Using this protocol, hyperalgesia is present for at least a week following completion for 4 days of treatment.\nHyperalgesia is measured by the Randall and Selitto's test (Randall and Setillo,1957) using an analgesimeter (Ugo Basile). The analgesimeter is basically a device which exerts a force that increases at constant rate. The force is applied to the animal's paw which is placed on a small plinth under a cone-shaped pusher. The operator depresses a pedal-switch to start the mechanism with exerts the force. The nociceptive threshold is defined as the force at which the rat withdraws its paw. The threshold is determined before and after treatment.\n% of antinociceptive activity is calculated as follows: [formula]"}, "[9]": {"system": "streptozocin-induced hyperalgesia", "assay": "streptozocin-induced diabetic rats, tail immersion test", "assay_type": "in vivo, rat", "conditions": "30 mg/kg s.c. single dose, 30 min or 60 min before test, 44° C.", "source_text": "FIG. 9: Effect of TMB in diabetic rats.\nStreptozocin is a selective pancreatic β-cell toxin, which has been used to induce experimental diabetes in laboratory animals (Tomlinson K. C. et al., 1992,). The resultant loss of endogenous insulin induced by streptozocin mimics the characteristics of type I, or insulin-dependent, diabetes. Streptozocin-induced diabetes has recently been described as a model of chronic pain in rats. It has been reported that streptozocin administration leads to mechanical, thermal, and chemical hyperalgesia as well as mechanical hypersensitivity (Courteix C. et al., 1993; Calcutt N. A. et al., 1996). The most common symptoms of diabetic neuropathy appear to be spontaneous burning pain and mechanical hypersensitivity in the feet or lower limbs.\nTest is carried out with male Sprague Dawley rats (Iffa-Credo) weighing 160-180 grams on arrival. […] Food and water are provided ad libidum.\nAnimals are intraperitoneally injected with streptozocin 75 mg/kg. Control animals are given vehicle in the same conditions. Diabetes are confirmed once a week after injection by measurement of tail vein blood glucose levels with Boehriger glycemia test. […]\nThe tail of the rat is immersed in a water bath at 44° C. […] Results are expressed as the mean+/−SEM and analysed by a Student's t test after an analysis of variance (Anova one way)."}, "[10]": {"system": "unilateral peripheral mononeuropathy", "assay": "rat mononeuropathy, vocalization threshold to paw pressure", "conditions": "for duration of the antinociceptive effect: (S)-Nor-TMB s.c., morphine i.v."}}, "note": "Like-named read-outs stand apart in the source and are kept apart here."}
{"smiles": "CCC(COC(=O)c1cc(OC)c(OC)c(OC)c1)(c1ccccc1)N(C)C.O=C(O)/C=C\\C(=O)O", "note": "(racemic) [trimebutine, 2-dimethylamino-2-phenylbutyl 3,4,5-trimethoxybenzoate hydrogen maleate]", "values": [{"measurement": "K+ current block", "setting": "[1]", "value": "23±6", "unit": "%"}, {"measurement": "activity at opioid receptors", "setting": "[2]", "value": "weak agonist activity"}, {"measurement": "blocking rate kon", "setting": "[3]", "value": "35-40 10^−3s^−1 μM^−1"}, {"measurement": "unblocking rate koff", "setting": "[3]", "value": "29 10^−3s^−1"}, {"measurement": "time constant of channel block", "setting": "[3]; 10 μM", "value": 2.2, "unit": "s"}, {"measurement": "τoff, time constant of recovery from block", "setting": "[3]; n=6", "value": "34 ± 4", "unit": "s"}, {"measurement": "IC50", "setting": "[3]; read-out: IC50, best fit to Hill function (FIG. 4D legend)", "value": 0.69, "unit": "µM"}, {"measurement": "IC50", "setting": "[3]; read-out: IC50, sodium current block (dose-response curve, text)", "value": "1.05 ± 0.09", "unit": "µM"}, {"measurement": "IC50", "setting": "[3]; read-out: IC50, sodium current block (summary statement)", "value": "< 1", "unit": "µM"}, {"measurement": "time of maximal plasma concentration", "setting": "[4]", "value": 1, "unit": "h"}, {"measurement": "concentration at which inhibition of glutamate release is seen / significant", "setting": "[5]", "value": "higher than 60 μM"}, {"measurement": "IC50", "setting": "[5]; Rattus norvegicus", "value": "> 100", "unit": "µM"}, {"measurement": "ED50", "setting": "[6]", "value": 231, "unit": "mg/kg"}, {"measurement": "IC50", "setting": "[7]", "value": "< 1", "unit": "µM"}]}
{"smiles": "CC[C@@](COC(=O)c1cc(OC)c(OC)c(OC)c1)(NC)c1ccccc1", "note": "[(R)-Nor-TMB, (R) N-desmethyl trimebutine]", "values": [{"measurement": "IC50", "setting": "[5]; Rattus norvegicus", "value": 16.3, "unit": "µM"}]}
{"smiles": "CC[C@](COC(=O)c1cc(OC)c(OC)c(OC)c1)(c1ccccc1)N(C)C", "note": "[(R)-Trimebutine]", "values": [{"measurement": "inhibition of PGE2-induced hyperalgesia", "setting": "[8]; 100 mg/kg s.c.", "value": 57, "unit": "%"}, {"measurement": "IC50", "setting": "[5]; Rattus norvegicus", "value": "> 100", "unit": "µM"}]}
{"smiles": "CC[C@](COC(=O)c1cc(OC)c(OC)c(OC)c1)(NC)c1ccccc1", "note": "[(S)-Nor-TMB, (S)-N-desmethyl trimebutine]", "values": [{"measurement": "reaction time of tail withdrawal from hot water", "setting": "[9]", "value": "the same as in control (non diabetic) rats"}, {"measurement": "antinociceptive effect compared with morphine 1 mg/kg i.v.", "setting": "[10]; 3 and 10 mg/kg s.c., amplitude and duration", "value": "superior to that of morphine"}, {"measurement": "duration of the antinociceptive effect", "setting": "[10]", "value": "more than 90 min"}, {"measurement": "dose from which the increase of vocalization pressure threshold is present", "setting": "[10]; s.c.", "value": "≥ 1", "unit": "mg/kg"}, {"measurement": "antinociceptive effect, contralateral paw", "setting": "[10]; vocalization threshold, s.c.", "value": "only at the highest dose (10 mg/kg)"}, {"measurement": "antinociceptive effect, nerve-injured paw", "setting": "[10]; vocalization threshold, s.c.", "value": "significant at all the three doses tested"}, {"measurement": "inhibition of PGE2-induced hyperalgesia", "setting": "[8]; 20 mg/kg s.c.", "value": "up to 89%"}, {"measurement": "ED50", "setting": "[8]; Rattus norvegicus, sc, read-out: ED50, PGE2-induced hyperalgesia", "value": 7, "unit": "mg/kg"}, {"measurement": "IC50", "setting": "[5]; Rattus norvegicus", "value": 6.3, "unit": "µM"}]}
{"smiles": "CC[C@@](COC(=O)c1cc(OC)c(OC)c(OC)c1)(c1ccccc1)N(C)C", "note": "[(S)-Trimebutine]", "values": [{"measurement": "IC50", "setting": "[5]; Rattus norvegicus", "value": 15.2, "unit": "µM"}]}
{"smiles": "CCC(COC(=O)c1cc(OC)c(OC)c(OC)c1)(NC)c1ccccc1", "note": "(stereo not shown) [Nor-TMB, N-desmethyl trimebutine]", "values": [{"measurement": "inhibition parameters (IC50, nH) compared with trimebutine", "setting": "[3]; DRG neurons", "value": "very similar"}, {"measurement": "IC50", "setting": "[5]; veratridine 40 μM, rat spinal cord slices", "value": 8.4, "unit": "µM"}, {"measurement": "ED50, formalin induced pain (licking time)", "setting": "[6]; s.c., 30 min before testing", "value": 17, "unit": "mg/kg"}]}
{"smiles": "CCCCN1CCCCC1C(=O)Nc1c(C)cccc1C", "note": "(stereo not shown) [bupivacaine]", "values": [{"measurement": "IC50", "setting": "[5]; Rattus norvegicus", "value": 8.2, "unit": "µM"}]}
{"smiles": "CN1CC[C@]23c4c5ccc(O)c4O[C@H]2[C@@H](O)C=C[C@H]3[C@H]1C5", "note": "[morphine]", "values": [{"measurement": "duration of the antinociceptive effect", "setting": "[10]", "value": "less than 60 min"}, {"measurement": "effect on veratridine-induced glutamate release", "setting": "[5]; up to 100 μM", "value": "inactive"}, {"measurement": "ED50", "setting": "[6]", "value": 0.51, "unit": "mg/kg"}]}
